In the supplement of paper PMC10307832:

Legend:
Experiment in all cases: relative viability (nuclei count vs DMSO), 5 days (fraction); higher = more cells survive
[1] = compound: CN1CCN(CC1)C2=CC(=C(C=C2)NC3=NC(=C(S3)C(=O)C4=C(C=CC=C4Cl)Cl)N)OC [XMD14-99] + CC(=O)c1c(C)c2cnc(Nc3ccc(N4CCNCC4)cn3)nc2n(C2CCCC2)c1=O [Palbociclib] (partner 0.5 µM)
Method in brief: (§1)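 The day after seeding in 1536-well plates, lung cancer cell lines were treated by pin tool with a single drug, or with a fixed anchor-drug dose together with five library-drug doses (not always all listed) in √10 steps. After 5 days, a combined fix-and-stain solution (final 0.05% Triton X-100, 1% formaldehyde, 1 ug/ml Hoechst) was added. Nuclei counted on 4× images gave relative viability as treated counts over vehicle counts, reported as the median of duplicate plates.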

[2] = compound: N[C@@H]1CCCN(c2c(/C=C3\SC(=O)NC3=O)cccc2-c2ccccc2)C1 [AZD1208] + CS(=O)(=O)N1CCN(Cc2cc3nc(-c4cccc5[nH]ncc45)nc(N4CCOCC4)c3s2)CC1 [Pictilisib] (partner 1 µM)
Method in brief: as §1

[3] = compound: N[C@@H]1CCCN(c2c(/C=C3\SC(=O)NC3=O)cccc2-c2ccccc2)C1 [AZD1208] + CC1(C)CCC(c2ccc(Cl)cc2)=C(CN2CCN(c3ccc(C(=O)NS(=O)(=O)c4ccc(N[C@H](CCN5CCOCC5)CSc5ccccc5)c(S(=O)(=O)C(F)(F)F)c4)cc3)CC2)C1 [Navitoclax] (partner 0.5 µM)
Method in brief: as §1

[4] = compound: N[C@@H]1CCCN(c2c(/C=C3\SC(=O)NC3=O)cccc2-c2ccccc2)C1 [AZD1208] + Cc1nc(Nc2ncc(C(=O)Nc3c(C)cccc3Cl)s2)cc(N2CCN(CCO)CC2)n1 [Dasatinib] (partner 0.075 µM)
Method in brief: as §1

Cell Line: UMC-11
- relative viability ([1]; first compound 0.08 µM): 0.34
- relative viability ([1]; first compound 0.8 µM): 0.383
- relative viability ([1]; first compound 2.53 µM): 0.346
- relative viability ([1]; first compound 8 µM): 0.292
- relative viability ([2]; first compound 0.08 µM): 0.507
- relative viability ([2]; first compound 0.253 µM): 0.612
- relative viability ([2]; first compound 0.8 µM): 0.51
- relative viability ([2]; first compound 2.53 µM): 0.389
- relative viability ([2]; first compound 8 µM): 0.344
- relative viability ([3]; first compound 0.08 µM): 0.272
- relative viability ([3]; first compound 0.253 µM): 0.301
- relative viability ([3]; first compound 0.8 µM): 0.251
- relative viability ([3]; first compound 2.53 µM): 0.236
- relative viability ([3]; first compound 8 µM): 0.195
- relative viability ([4]; first compound 0.08 µM): 0.462
- relative viability ([4]; first compound 0.253 µM): 0.469
- relative viability ([4]; first compound 0.8 µM): 0.446
- relative viability ([4]; first compound 2.53 µM): 0.483
- relative viability ([4]; first compound 8 µM): 0.41
